How the values were obtained:
Assay type in all cases: biochemical
[1] = target: T1, MMP-3 (Homo sapiens, UniProt P08254); assay: In vitro MMP-3 inhibition test
T1 construct: purchased R&D Systems 513-MP
From the text: (§1) The activity strength of the compounds according to the invention towards other MMPs (and therefore their selectivity) is likewise ascertained in in vitro inhibition tests. The MMP-mediated amidolytic cleavage of a suitable peptide substrate also leads here to a fluorescent light increase. The signal intensity of the fluorescent light is directly proportional to the enzyme activity. The active concentration of a test compound at which half of the enzyme is inhibited (50% signal intensity of the fluorescent light) is given as IC50 value.
Recombinant MMP-3 (R&D Systems, 513-MP) is chemically activated in accordance with the manufacturer's instructions using APMA. 1 μl of the test compound to be analysed (as a solution in DMSO, suitable concentrations e.g. 1 nM to 30 μM) is pipetted into 24 μl of activated enzyme (final concentration e.g. 2 nM) in reaction buffer (50 mM Tris/HCl pH 7.5, 10 mM CaCl2, 150 mM NaCl, 0.05% Brij®-35) in a white 384-hole microtiter plate (MTP). The enzymatic reaction is started by adding the intramolecularly quenched substrate Mca-Arg-Pro-Lys-Pro-Val-Glu-Nval-Trp-Arg-Lys(Dnp)-NH2 (final concentration e.g. 10 μM; R&D Systems, ES-002), such that a total test volume of 50 μl results. The progress of the MMP-3 reaction is measured by measuring the fluorescence intensity (excitation 320 nm, emission 410 nm) over a suitable period (e.g. over 120 min at a temperature of 32° C.).
(§2) The IC50 values were determined for racemates and enantiomers from differently generated DMSO stock solutions. Whereas an automatically produced DMSO stock solution from the internal substance logistics was used for racemates by means of a standard method, in the case of enantiomers a freshly produced, manually prepared DMSO stock solution was used in each case for a more precise direct comparison of the enantiomers with one another.

[2] = target: T2, MMP-9 of the mouse (Mus musculus, UniProt P41245); assay: In vitro MMP-9 inhibition test of the mouse
T2 construct: purchased R&D Systems 909-MP
From the text: as §1
Recombinant MMP-9 of the mouse (R&D Systems, 909-MP) is chemically activated in accordance with the manufacturer's instructions using APMA. 1 μl of the test compound to be analysed (as a solution in DMSO, suitable concentrations e.g. 1 nM to 30 μM) is pipetted into 24 μl of activated enzyme (final concentration e.g. 0.1 nM) in reaction buffer (50 mM Tris/HCl pH 7.5, 10 mM CaCl2, 150 mM NaCl, 0.05% Brij®-35) in a white 384-hole microtiter plate (MTP). The enzymatic reaction is started by adding the intramolecularly quenched substrate Mca-Pro-Leu-Gly-Leu-Dpa(Dnp)-Ala-Arg-NH2 (final concentration e.g. 5 μM; R&D Systems, ES-001), such that a total test volume of 50 μl results. The progress of the MMP-9 reaction is measured by measuring the fluorescence intensity (excitation 320 nm, emission 410 nm) over a suitable period (e.g. over 120 min at a temperature of 32° C.).
(§3) Tables 3A and 3B below give the IC50 values from these tests for the inhibition of rodent MMPs for representative embodiment examples of the present invention and also for two structurally related comparison compounds from the prior art (as racemate and separated enantiomer)→(in part as average values from several independent individual determinations and rounded to two significant places). The IC50 values were determined for racemates and enantiomers from differently generated DMSO stock solutions. Whereas an automatically created DMSO stock solution from the internal substance logistics was used for racemates by means of a standard method, in the case of enantiomers, in each case a freshly produced, manually prepared DMSO stock solution was used for a more precise direct comparison of the enantiomers with one another.

[3] = target: T3, MMP-16 (Homo sapiens, UniProt P51512); assay: In vitro MMP-16 inhibition test
T3 construct: purchased R&D Systems 1785-MP
From the text: as §1
Recombinant MMP-16 (R&D Systems, 1785-MP) is enzymatically activated in accordance with the manufacturer's instructions using recombinant furin (R&D Systems, 1503-SE). 1 μl of the test compound to be analysed (as a solution in DMSO, suitable concentrations e.g. 1 nM to 30 μM) is pipette into 24 μl of activated enzyme (final concentration e.g. 1 nM) in reaction buffer (50 mM Tris/HCl pH 7.5, 10 mM CaCl2, 150 mM NaCl, 0.05% Brij®-35) in a white 384-hole microtiter plate (MTP). The enzymatic reaction is started by adding the intramolecularly quenched substrate Mca-Lys-Pro-Leu-Gly-Leu-Dpa(Dnp)-Ala-Arg-NH2 (final concentration e.g. 5 μM; R&D Systems, ES-010), such that a total test volume of 50 μl results. The progress of the MMP-16 reaction is measured by measuring the fluorescence intensity (excitation 320 nm, emission 410 nm) over a suitable period (e.g. over 120 min at a temperature of 32° C.).
as §2

[4] = target: T4, MMP-12 of the mouse (Mus musculus, UniProt P34960); assay: In vitro MMP-12 inhibition test of the mouse (standard / high-sensitivity)
T4 construct: purchased R&D Systems 3467-MP
From the text: as §1
Recombinant MMP-12 of the mouse (R&D Systems, 3467-MP) is autocatalytically activated in accordance with the manufacturer's instructions. 1 μl of the test compound to be analysed (as a solution in DMSO, suitable concentrations e.g. 1 nM to 30 μM) is pipetted into 24 μl of activated enzyme (final concentration e.g. 1 nM) in reaction buffer (50 mM Tris/HCl pH 7.5, 10 mM CaCl2, 150 mM NaCl, 0.05% Brij®-35) in a white 384-hole microtiter plate (MTP). The enzymatic reaction is started by adding the intramolecularly quenched substrate Mca-Lys-Pro-Leu-Gly-Leu-Dpa(Dnp)-Ala-Arg-NH2 (final concentration e.g. 5 μM; R&D Systems, ES-010), such that a total test volume of 50 μl results. The progress of the MMP-12 reaction is measured by measuring the fluorescence intensity (excitation 320 nm, emission 410 nm) over a suitable period (e.g. over 120 min at a temperature of 32° C.).
If subnanomolar IC values are produced for high-potency test substances in the above-described MMP-12 inhibition test of the mouse, then a modified test is used for their more precise determination. Here, a ten-fold lower enzyme concentration is used (final concentration e.g. 0.1 nM), in order to achieve an increased sensitivity of the test. The incubation time of the test is correspondingly chosen to be longer (e.g. 16 hours).
as §3

T2 sequence (P41245 108-730): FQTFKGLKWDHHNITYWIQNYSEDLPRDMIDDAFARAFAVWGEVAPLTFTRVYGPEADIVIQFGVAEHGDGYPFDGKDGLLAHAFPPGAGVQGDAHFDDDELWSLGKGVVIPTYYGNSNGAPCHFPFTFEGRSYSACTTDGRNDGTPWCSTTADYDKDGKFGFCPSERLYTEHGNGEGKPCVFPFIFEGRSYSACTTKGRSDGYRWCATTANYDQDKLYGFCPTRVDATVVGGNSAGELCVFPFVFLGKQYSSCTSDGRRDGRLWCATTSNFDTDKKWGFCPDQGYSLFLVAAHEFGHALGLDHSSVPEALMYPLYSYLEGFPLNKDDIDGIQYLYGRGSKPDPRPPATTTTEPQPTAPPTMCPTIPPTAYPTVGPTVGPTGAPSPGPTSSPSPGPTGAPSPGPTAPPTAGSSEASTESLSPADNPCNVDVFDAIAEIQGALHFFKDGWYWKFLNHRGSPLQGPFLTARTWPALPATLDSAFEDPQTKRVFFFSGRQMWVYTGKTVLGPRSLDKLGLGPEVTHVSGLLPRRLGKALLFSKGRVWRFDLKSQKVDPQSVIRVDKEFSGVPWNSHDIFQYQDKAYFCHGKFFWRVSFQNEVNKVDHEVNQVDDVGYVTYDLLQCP
T4 sequence (P34960 110-473): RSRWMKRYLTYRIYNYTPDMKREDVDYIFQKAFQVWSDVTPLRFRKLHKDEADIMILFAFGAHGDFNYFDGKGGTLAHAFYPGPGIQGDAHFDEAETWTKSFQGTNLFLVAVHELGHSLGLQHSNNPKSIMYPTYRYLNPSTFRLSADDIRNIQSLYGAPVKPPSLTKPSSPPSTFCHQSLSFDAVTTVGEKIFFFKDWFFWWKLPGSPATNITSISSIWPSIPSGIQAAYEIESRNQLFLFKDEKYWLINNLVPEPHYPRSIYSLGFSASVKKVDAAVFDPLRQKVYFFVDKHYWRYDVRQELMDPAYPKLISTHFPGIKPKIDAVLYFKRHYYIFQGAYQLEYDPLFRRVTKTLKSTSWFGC
T1 sequence (P08254 100-477): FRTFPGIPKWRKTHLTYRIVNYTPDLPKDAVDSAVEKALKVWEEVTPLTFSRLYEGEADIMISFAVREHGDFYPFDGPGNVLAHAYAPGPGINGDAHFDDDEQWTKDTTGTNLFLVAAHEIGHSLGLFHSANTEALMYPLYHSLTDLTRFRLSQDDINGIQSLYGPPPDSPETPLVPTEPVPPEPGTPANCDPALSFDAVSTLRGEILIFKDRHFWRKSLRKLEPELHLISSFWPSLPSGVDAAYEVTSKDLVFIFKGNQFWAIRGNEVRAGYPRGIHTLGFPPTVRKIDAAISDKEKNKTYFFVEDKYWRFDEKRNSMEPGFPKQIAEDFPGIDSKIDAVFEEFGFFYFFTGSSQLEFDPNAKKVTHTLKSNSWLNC
T3 sequence (P51512 120-607): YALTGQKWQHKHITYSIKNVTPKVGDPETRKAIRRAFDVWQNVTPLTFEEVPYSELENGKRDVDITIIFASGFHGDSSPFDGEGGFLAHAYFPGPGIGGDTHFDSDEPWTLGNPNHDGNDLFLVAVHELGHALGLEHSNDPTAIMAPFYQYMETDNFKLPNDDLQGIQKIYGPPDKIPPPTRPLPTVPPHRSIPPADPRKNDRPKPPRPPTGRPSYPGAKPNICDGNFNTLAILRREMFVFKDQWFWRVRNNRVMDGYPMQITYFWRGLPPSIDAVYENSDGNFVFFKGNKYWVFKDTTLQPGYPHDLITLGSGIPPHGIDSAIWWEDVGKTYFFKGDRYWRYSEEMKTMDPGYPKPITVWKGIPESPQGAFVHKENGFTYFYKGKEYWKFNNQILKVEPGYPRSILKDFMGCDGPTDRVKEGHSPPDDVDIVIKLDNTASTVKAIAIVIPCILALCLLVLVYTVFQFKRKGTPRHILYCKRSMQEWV

| IC50 [1] | IC50 [2] | IC50 [3] | IC50 [4] | Structure (SMILES) |
| --- | --- | --- | --- | --- |
| 6600 nM | 905 nM | 6700 nM | 18 nM | CCCCCOc1ccc(C(=O)CC(CCn2nnc3ccccc3c2=O)C(=O)O)cc1 (single isomer, unassigned; enantiomer 1) [Comparative Example B-2, (+)-4-Oxo-2-[2-(4-oxo-1,2,3-benzotriazin-3(4H)-yl)ethyl]-4-[4-(pentyloxy)phenyl]butanoic acid (enantiomer 1)] |
| 175 nM | 27.5 nM | 78.5 nM | 0.13 nM | O=C(O)[C@H]1[C@H](Cn2nnc3ccccc3c2=O)CC[C@@H]1C(=O)c1ccc(OCc2ccccc2)cc1 [Example 2, (+)-(1S,2S,5R)-2-[4-(Benzyloxy)benzoyl]-5-[(4-oxo-1,2,3-benzotriazin-3(4H)-yl)methyl]cyclopentanecarboxylic acid] |
| 22.5 nM | 1.5 nM | 5.2 nM | 0.1 nM | O=C(O)[C@@H]1[C@@H](Cn2nnc3ccccc3c2=O)CC[C@H]1C(=O)c1ccc(-c2ccc(Cl)cc2)cc1 (single isomer, unassigned; enantiomer 2) [Comparative Example A-3, (1RS,2RS,5SR)-2-[(4′-Chlorobiphenyl-4-yl)carbonyl]-5-[(4-oxo-1,2,3-benzotriazin-3(4H)-yl)methyl]cyclopentanecarboxylic acid (enantiomer 2)] |
| 9150 nM | 2700 nM | 22000 nM | 32 nM | CCCCCOc1ccc(C(=O)CC(CCn2nnc3ccccc3c2=O)C(=O)O)cc1 (racemic) [Comparative Example B-1, (+/−)-4-Oxo-2-[2-(4-oxo-1,2,3-benzotriazin-3(4H)-yl)ethyl]-4-[4-(pentyloxy)phenyl]butanoic acid (racemate)] |
| 49 nM | 4.9 nM | 16 nM | < 0.61 nM | O=C(O)[C@H]1[C@H](Cn2nnc3ccccc3c2=O)CC[C@@H]1C(=O)c1ccc(-c2ccc(Cl)cc2)cc1 (racemic) [Comparative Example A-1, (1RS,2RS,5SR)-2-[(4′-chlorobiphenyl-4-yl)carbonyl]-5-[(4-oxo-1,2,3-benzotriazin-3(4H)-yl)methyl]cyclopentanecarboxylic acid (racemate)] |
| 390 nM | 71 nM | 130 nM | 0.54 nM | O=C(O)[C@H]1[C@H](Cn2nnc3ccccc3c2=O)CC[C@@H]1C(=O)c1ccc(OCc2ccccc2)cc1 (racemic) [Example 1, (+/−)-(1RS,2RS,5SR)-2-[4-(Benzyloxy)benzoyl]-5-[(4-oxo-1,2,3-benzotriazin-3(4H)-yl)methyl]cyclopentanecarboxylic acid (racemate)] |

Source: patent publication US20170119776A1, “CHIRAL 2,5-DISUBSTITUTED CYCLOPENTANECARBOXYLIC ACID DERIVATIVES AND USE THEREOF” (BAYER PHARMA AKTIENGESELLSCHAFT, priority 2014, published 2017)
